Experiments:
OVCAR-5 = assay: Growth inhibition of human OVCAR5 cells assessed as cell growth at 1 uM incubated for 48 hrs by sulforhodamine B assay relative to control; assay type: functional; settings: OVCAR-5, 48 h, read-out: Activity
HT-29 [1] = assay: Growth inhibition of human HT-29 cells assessed as cell growth at 100 uM incubated for 48 hrs by sulforhodamine B assay relative to control; assay type: functional; settings: HT-29, 48 h, read-out: Activity
LOX IMVI [2] = assay: Growth inhibition of human LOXIMVI cells assessed as cell growth at 0.01 uM incubated for 48 hrs by sulforhodamine B assay relative to control; assay type: functional; settings: read-out: Activity
LOX IMVI [3] = assay: Growth inhibition of human LOXIMVI cells assessed as cell growth at 100 uM incubated for 48 hrs by sulforhodamine B assay relative to control; assay type: functional; settings: read-out: Activity
Hs-578T [4] = assay: Growth inhibition of human Hs578T cells incubated for 48 hrs by sulforhodamine B assay; assay type: functional, cell-based
MDA-MB-468 = assay: Growth inhibition of human MDA-MB-468 cells assessed as cell growth at 100 uM incubated for 48 hrs by sulforhodamine B assay relative to control; assay type: functional; settings: MDA-MB-468, 48 h, read-out: Activity
NCI-H322M [5] = assay: Growth inhibition of human NCI-H322M cells assessed as cell growth at 0.1 uM incubated for 48 hrs by sulforhodamine B assay relative to control; assay type: functional; settings: read-out: Activity
HOP-62 = assay: Growth inhibition of human HOP62 cells assessed as cell growth at 0.01 uM incubated for 48 hrs by sulforhodamine B assay relative to control; assay type: functional; settings: HOP-62, 48 h, read-out: Activity
HCC 2998 [6] = assay: Growth inhibition of human HCC2998 cells assessed as cell growth at 0.01 uM incubated for 48 hrs by sulforhodamine B assay relative to control; assay type: functional; settings: HCC 2998, 48 h, read-out: Activity
UACC-62 = assay: Growth inhibition of human UACC62 cells incubated for 48 hrs by sulforhodamine B assay; assay type: functional, cell-based; settings: UACC-62, 48 h
NCI-H322M [7] = assay: Growth inhibition of human NCI-H322M cells assessed as cell growth at 1 uM incubated for 48 hrs by sulforhodamine B assay relative to control; assay type: functional; settings: read-out: Activity
SK-MEL-28 = assay: Growth inhibition of human SK-MEL-28 cells assessed as cell growth at 1 uM incubated for 48 hrs by sulforhodamine B assay relative to control; assay type: functional; settings: SK-MEL-28, 48 h, read-out: Activity
SK-MEL-2 = assay: Growth inhibition of human SK-MEL-2 cells assessed as cell growth at 0.01 uM incubated for 48 hrs by sulforhodamine B assay relative to control; assay type: functional; settings: SK-MEL-2, 48 h, read-out: Activity
UACC-257 = assay: Growth inhibition of human UACC257 cells assessed as cell growth at 1 uM incubated for 48 hrs by sulforhodamine B assay relative to control; assay type: functional; settings: UACC-257, 48 h, read-out: Activity
HCC 2998 [8] = assay: Growth inhibition of human HCC2998 cells incubated for 48 hrs by sulforhodamine B assay; assay type: functional, cell-based; settings: HCC 2998, 48 h
HT-29 [9] = assay: Growth inhibition of human HT-29 cells assessed as cell growth at 1 uM incubated for 48 hrs by sulforhodamine B assay relative to control; assay type: functional; settings: HT-29, 48 h, read-out: Activity
Hs-578T [10] = assay: Growth inhibition of human Hs578T cells assessed as cell growth at 100 uM incubated for 48 hrs by sulforhodamine B assay relative to control; assay type: functional; settings: read-out: Activity
SNB-75 = assay: Growth inhibition of human SNB75 cells assessed as cell growth at 0.1 uM incubated for 48 hrs by sulforhodamine B assay relative to control; assay type: functional; settings: SNB-75, 48 h, read-out: Activity
RXF 393 = assay: Growth inhibition of human RXF393 cells assessed as cell growth at 100 uM incubated for 48 hrs by sulforhodamine B assay relative to control; assay type: functional; settings: RXF 393, 48 h, read-out: Activity
A498 = assay: Growth inhibition of human A498 cells incubated for 48 hrs by sulforhodamine B assay; assay type: functional, cell-based; settings: A498, 48 h
SN12C = assay: Growth inhibition of human SN12C cells assessed as cell growth at 0.1 uM incubated for 48 hrs by sulforhodamine B assay relative to control; assay type: functional; settings: read-out: Activity
OVCAR-4 = assay: Growth inhibition of human OVCAR4 cells assessed as cell growth at 0.01 uM incubated for 48 hrs by sulforhodamine B assay relative to control; assay type: functional; settings: OVCAR-4, 48 h, read-out: Activity
UO-31 = assay: Growth inhibition of human UO31 cells assessed as cell growth at 100 uM incubated for 48 hrs by sulforhodamine B assay relative to control; assay type: functional; settings: UO-31, 48 h, read-out: Activity
NCI/ADR-RES = assay: Growth inhibition of human NCI/ADR-RES cells assessed as cell growth at 1 uM incubated for 48 hrs by sulforhodamine B assay relative to control; assay type: functional; settings: read-out: Activity
SNB-19 = assay: Growth inhibition of human SNB19 cells incubated for 48 hrs by sulforhodamine B assay; assay type: functional, cell-based; settings: SNB-19, 48 h
COLO 205 = assay: Growth inhibition of human COLO205 cells assessed as cell growth at 0.01 uM incubated for 48 hrs by sulforhodamine B assay relative to control; assay type: functional; settings: COLO 205, 48 h, read-out: Activity
T47D = assay: Growth inhibition of human T47D cells assessed as cell growth at 0.1 uM incubated for 48 hrs by sulforhodamine B assay relative to control; assay type: functional; settings: read-out: Activity
MDA-MB-435 = assay: Growth inhibition of human MDA-MB-435 cells incubated for 48 hrs by sulforhodamine B assay; assay type: functional, cell-based; settings: MDA-MB-435, 48 h
A549 = assay: Growth inhibition of human A549/ATCC cells assessed as cell growth at 1 uM incubated for 48 hrs by sulforhodamine B assay relative to control; assay type: functional; settings: A549, 48 h, read-out: Activity
NCI-H322M [11] = assay: Growth inhibition of human NCI-H322M cells assessed as cell growth at 100 uM incubated for 48 hrs by sulforhodamine B assay relative to control; assay type: functional; settings: read-out: Activity
[12] = read-out: LC50 (the source's name)
[13] = read-out: pLC50 (the source's name) (converted)

SMILES: COc1cc(Cl)cc(-c2nn(-c3cccc(NC(=O)Nc4cccc(C(F)(F)F)c4)c3)cc2-c2ccncc2)c1
- growth at 1 µM (OVCAR-5): 88%
- growth at 100 µM (HT-29 [1]): -97%
- growth at 0.01 µM (LOX IMVI [2]): 96%
- growth at 100 µM (LOX IMVI [3]): -53%
- GI50 (Hs-578T [4]; read-out: GI50): 4.05 µM
- CC50 (Hs-578T [4]; [12]): > 100 µM
- TGI (Hs-578T [4]; read-out: TGI): > 100 µM
- GI50 (Hs-578T [4]; read-out: pGI50 (converted)): 4.07 µM
- CC50 (Hs-578T [4]; [13]): > 100 µM
- TGI (Hs-578T [4]; read-out: pTGI (converted)): > 100 µM
- growth at 100 µM (MDA-MB-468): -34%
- growth at 0.1 µM (NCI-H322M [5]): 94%
- growth at 0.01 µM (HOP-62): 96%
- growth at 0.01 µM (HCC 2998 [6]): 98%
- IC50 (UACC-62): 1.47 µM
- GI50 (UACC-62; read-out: GI50): 1.47 µM
- CC50 (UACC-62; [12]): 10.2 µM
- TGI (UACC-62; read-out: TGI): 33.4 µM
- GI50 (UACC-62; read-out: pGI50 (converted)): 1.48 µM
- CC50 (UACC-62; [13]): 10.2 µM
- TGI (UACC-62; read-out: pTGI (converted)): 3.8 µM
- growth at 1 µM (NCI-H322M [7]): 83%
- growth at 1 µM (SK-MEL-28): 82%
- growth at 0.01 µM (SK-MEL-2): 95%
- growth at 1 µM (UACC-257): 78%
- GI50 (HCC 2998 [8]; read-out: GI50): 3.47 µM
- CC50 (HCC 2998 [8]; [12]): 90.1 µM
- TGI (HCC 2998 [8]; read-out: TGI): 14 µM
- GI50 (HCC 2998 [8]; read-out: pGI50 (converted)): 3.47 µM
- CC50 (HCC 2998 [8]; [13]): 89.1 µM
- TGI (HCC 2998 [8]; read-out: pTGI (converted)): 14.1 µM
- growth at 1 µM (HT-29 [9]): 65%
- growth at 100 µM (Hs-578T [10]): 21%
- growth at 0.1 µM (SNB-75): 55%
- growth at 100 µM (RXF 393): -80%
- GI50 (A498; read-out: GI50): 2.25 µM
- CC50 (A498; [12]): > 100 µM
- TGI (A498; read-out: TGI): 25.5 µM
- GI50 (A498; read-out: pGI50 (converted)): 2.24 µM
- CC50 (A498; [13]): > 100 µM
- TGI (A498; read-out: pTGI (converted)): 25.7 µM
- growth at 0.1 µM (SN12C): 96%
- growth at 0.01 µM (OVCAR-4): 93%
- growth at 100 µM (UO-31): -20%
- growth at 1 µM (NCI/ADR-RES): 65%
- GI50 (SNB-19; read-out: GI50): 2.77 µM
- CC50 (SNB-19; [12]): > 100 µM
- TGI (SNB-19; read-out: TGI): 35.9 µM
- GI50 (SNB-19; read-out: pGI50 (converted)): 2.75 µM
- CC50 (SNB-19; [13]): > 100 µM
- TGI (SNB-19; read-out: pTGI (converted)): 35.5 µM
- growth at 0.01 µM (COLO 205): 100%
- growth at 0.1 µM (T47D): 94%
- GI50 (MDA-MB-435; read-out: GI50): 1.74 µM
- LC50 (MDA-MB-435; read-out: LC50): 83.7 µM
- TGI (MDA-MB-435; read-out: TGI): 35.2 µM
- GI50 (MDA-MB-435; read-out: pGI50 (converted)): 1.74 µM
- LC50 (MDA-MB-435; read-out: pLC50 (converted)): 8.32 µM
- TGI (MDA-MB-435; read-out: pTGI (converted)): 3.8 µM
- growth at 1 µM (A549): 43%
- growth at 100 µM (NCI-H322M [11]): -8%

Reference: ChEMBL document CHEMBL4308841, “Synthesis, in vitro antiproliferative activity, and kinase inhibitory effects of pyrazole-containing diarylureas and diarylamides” (Eur J Med Chem, 2018)
